The target in this assay is human KOR receptor (Homo sapiens, UniProt P41145). The assay can be described thus: IP-One HTRF assay, potency of KOR agonists, dose-response in transiently transfected COS-7 cells. The class given is cell-based. In general terms: Time-resolved FRET reads energy transfer from a long-lived donor to a nearby acceptor.

This is an account of results in US9487510B2, “Substituted heterocyclic acetamides as kappa opioid receptor (KOR) agonists” (Dr. Reddy's Laboratories Ltd., priority 2012, dated 2016).

pEC50: −log10 of the molar value. Where a name gives a salt, the structure may show the parent alone.

human KOR receptor, sequence (P41145 whole entry): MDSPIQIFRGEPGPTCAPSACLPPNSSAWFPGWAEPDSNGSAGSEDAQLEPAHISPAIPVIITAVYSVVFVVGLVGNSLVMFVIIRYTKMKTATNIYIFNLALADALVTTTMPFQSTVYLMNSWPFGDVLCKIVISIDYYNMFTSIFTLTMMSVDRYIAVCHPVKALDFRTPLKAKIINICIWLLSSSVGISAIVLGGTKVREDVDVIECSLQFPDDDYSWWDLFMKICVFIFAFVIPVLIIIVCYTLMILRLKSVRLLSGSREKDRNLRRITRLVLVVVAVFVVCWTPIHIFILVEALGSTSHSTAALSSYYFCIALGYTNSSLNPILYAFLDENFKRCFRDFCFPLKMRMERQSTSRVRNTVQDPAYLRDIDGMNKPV

One may read the pEC50 as the EC50 on a negative log10 scale, so that one unit is a factor of ten. Consider `CN(C(=O)Cc1ccc2c(c1)N(C)S(=O)(=O)C2)[C@H](CN1CC[C@H](O)C1)c1cccc(-c2nn[nH]n2)c1` [Example 21, N-((S)-1-(3-(1H-tetrazol-5-yl)phenyl)-2-((S)-3-hydroxypyrrolidin-1-yl)ethyl)-N-methyl-2-(1-methyl-2,2-dioxido-1,3-dihydrobenzo[c]isothiazol-6-yl)acetamide], for which the negative-log EC50 (pEC50) is 7.00 to 7.29.

With `CN(C(=O)Cc1ccc2c(c1)NC(=O)C2)[C@H](CN1CC[C@H](O)C1)c1cccc(-c2nccs2)c1` [Example 36, N-((S)-2-((S)-3-hydroxypyrrolidin-1-yl)-1-(3-(thiazol-2-yl)phenyl)ethyl)-N-methyl-2-(2-oxoindolin-6-yl)acetamide], the pEC50 is 7.00 to 7.29.

For the compound `CCN(C(=O)Cc1ccc2c(c1)NC(=O)CS2(=O)=O)[C@H](CN1CC[C@H](O)C1)c1cccc(OC(F)(F)F)c1` [Example 14, 2-(1,1-dioxido-3-oxo-3,4-dihydro-2H-benzo[b][1,4]thiazin-6-yl)-N-ethyl-N-((S)-2-((S)-3-hydroxypyrrolidin-1-yl)-1-(3-(trifluoromethoxy)phenyl)ethyl)acetamide], the pEC50 is at most 6.00.

As for `CN(C(=O)Cc1ccc2c(c1)NC(=O)CS2)[C@H](CN1CC[C@H](O)C1)c1cccc(OC(F)(F)F)c1` [Example 134, N-((S)-2-((S)-3-hydroxypyrrolidin-1-yl)-1-(3-(trifluoromethoxy)phenyl)ethyl)-N-methyl-2-(3-oxo-3,4-dihydro-2H-benzo[b][1,4]thiazin-6-yl)acetamide], the pEC50 is at least 7.30.

`CN(C(=O)Cc1ccc2c(c1)NS(=O)(=O)C2)[C@H](CN1CC[C@H](O)C1)c1cccc(C(=O)NCC(F)(F)F)c1` [Example 195, 3-((S)-1-(2-(2,2-dioxido-1,3-dihydrobenzo[c]isothiazol-6-yl)-N-methylacetamido)-2-((S)-3-hydroxypyrrolidin-1-yl)ethyl)-N-(2,2,2-trifluoroethyl)benzamide] had a pEC50 of at least 7.30.

The compound `C#Cc1cccc([C@@H](CN2CC[C@H](O)C2)N(C)C(=O)Cc2ccc3c(c2)NC(=O)CS3(=O)=O)c1` [Example 201, 2-(1,1-dioxido-3-oxo-3,4-dihydro-2H-benzo[b][1,4]thiazin-6-yl)-N-((S)-1-(3-ethynylphenyl)-2-((S)-3-hydroxypyrrolidin-1-yl)ethyl)-N-methylacetamide] gave a pEC50 of at least 7.30.

Turning to `O=C(O)COc1cccc([C@@H](CN2CCCC2)NC(=O)Cc2ccc3oc(=O)[nH]c3c2)c1` [Example 85, (S)-2-(3-(1-(2-(2-oxo-2,3-dihydrobenzo[d]oxazol-5-yl)acetamido)-2-(pyrrolidin-1-yl)ethyl)phenoxy)acetic acid hydrochloride], the pEC50 was at least 7.30.

As for `CN(C(=O)Cc1ccc2c(c1)CS(=O)(=O)N2)[C@H](CN1CC[C@H](O)C1)c1ccccc1` [Example 10, 5-(2-(((S)-2-((S)-3-hydroxypyrrolidin-1-yl)-1-phenylethyl)(methyl)amino)-2-oxoethyl)-1,3-dihydrobenzo[c]isothiazol-1-ium 2,2-dioxide 2,2,2-trifluoroacetate], the pEC50 is 6.00 to 7.00.

The compound `CN(C(=O)Cc1ccc2c(c1)NC(=O)C2)[C@H](CN1CC[C@H](O)C1)c1cccc(C(=O)NS(C)(=O)=O)c1` [Example 177, 3-((S)-2-((S)-3-hydroxypyrrolidin-1-yl)-1-(N-methyl-2-(2-oxoindolin-6-yl)acetamido)ethyl)-N-(methylsulfonyl)benzamide] gave a pEC50 of at least 7.30.

For `CN(C(=O)Cc1ccc2c(c1)NC(=O)C2)[C@H](CN1CC[C@H](F)C1)c1cccc(C(=O)O)c1` [Example 28, 3-((S)-2-((S)-3-fluoropyrrolidin-1-yl)-1-(N-methyl-2-(2-oxoindolin-6-yl)acetamido)ethyl) benzoic acid], the pEC50 was 6.00 to 7.00.

`CN(C(=O)Cc1ccc2c(c1)NS(=O)(=O)C2)[C@H](CN1CC[C@H](O)C1)c1cccc(-c2nn[nH]n2)c1` [Example 79, N-((S)-1-(3-(1H-tetrazol-5-yl)phenyl)-2-((S)-3-hydroxypyrrolidin-1-yl)ethyl)-2-(2,2-dioxido-1,3-dihydrobenzo[c]isothiazol-6-yl)-N-methylacetamide] showed a pEC50 of at least 7.30.

With `CN(C(=O)Cc1ccc2oc(=O)n(Cc3ccccc3)c2c1)[C@H](CN1CCCC1)c1cccc(OCc2ccccc2)c1` [Example 64, (S)-2-(3-benzyl-2-oxo-2,3-dihydrobenzo[d]oxazol-5-yl)-N-(1-(3-(benzyloxy)phenyl)-2-(pyrrolidin-1-yl)ethyl)-N-methylacetamide], the pEC50 was at least 7.30.

In turn, `CN(C(=O)Cc1ccc2sc(=O)[nH]c2c1)[C@H](CN1CC[C@H](O)C1)c1cccc(C(=O)NCC(F)(F)F)c1` [Example 228, 3-((S)-2-((S)-3-hydroxypyrrolidin-1-yl)-1-(N-methyl-2-(2-oxo-2,3-dihydrobenzo[d]thiazol-5-yl)acetamido)ethyl)-N-(2,2,2-trifluoroethyl)benzamide] had a pEC50 of at least 7.30.

Consider `CN(C(=O)Cc1ccc2c(c1)NC(=O)CS2(=O)=O)C(CN1CC[C@H](O)C1)C1CCOCC1` (stereo partly drawn) [Example 17, 2-(1,1-dioxido-3-oxo-3,4-dihydro-2H-benzo[b][1,4]thiazin-6-yl)-N-(2-((S)-3-hydroxypyrrolidin-1-yl)-1-(tetrahydro-2H-pyran-4-yl)ethyl)-N-methylacetamide-2,2,2-trifluoroacetate], for which the pEC50 is 6.00 to 7.00.

Consider `Cc1nc(-c2cccc([C@@H](CN3CC[C@H](O)C3)N(C)C(=O)Cc3ccc4c(c3)NS(=O)(=O)C4)c2)no1` [Example 181, 2-(2,2-dioxido-1,3-dihydrobenzo[c]isothiazol-6-yl)-N-((S)-2-((S)-3-hydroxypyrrolidin-1-yl)-1-(3-(5-methyl-1,2,4-oxadiazol-3-yl)phenyl)ethyl)-N-methylacetamide], for which the pEC50 is at least 7.30.

For `CN(C(=O)Cc1ccc2c(c1)NC(=O)CS2(=O)=O)[C@H](CN1CC[C@H](O)C1)c1cccc(C(F)(F)F)c1` [Example 123, 2-(1,1-dioxido-3-oxo-3,4-dihydro-2H-benzo[b][1,4]thiazin-6-yl)-N-((S)-2-((S)-3-hydroxypyrrolidin-1-yl)-1-(3-(trifluoromethyl)phenyl)ethyl)-N-methylacetamide], the pEC50 was at least 7.30.

`CN(C(=O)Cc1ccc2c(c1)NC(=O)C2)[C@H](CN1CC[C@H](O)C1)c1cc(F)cc(C#N)c1` [Example 197, N-((S)-1-(3-cyano-5-fluorophenyl)-2-((S)-3-hydroxypyrrolidin-1-yl)ethyl)-N-methyl-2-(2-oxoindolin-6-yl)acetamide]: the pEC50 is 7.00 to 7.29.

The compound `CCN(CC)C(=O)c1cccc([C@@H](CN2CC[C@H](O)C2)N(C)C(=O)Cc2ccc3sc(=O)[nH]c3c2)c1` [Example 188, N,N-diethyl-3-((S)-2-((S)-3-hydroxypyrrolidin-1-yl)-1-(N-methyl-2-(2-oxo-2,3-dihydrobenzo[d]thiazol-5-yl)acetamido)ethyl)benzamide] showed a pEC50 of at least 7.30.

`CN(C(=O)Cc1ccc2c(c1)NC(=O)C2)[C@H](CN1CC[C@H](O)C1)c1cccc(-c2cn(C)cn2)c1` [Example 225, N-((S)-2-((S)-3-hydroxypyrrolidin-1-yl)-1-(3-(1-methyl-1H-imidazol-4-yl)phenyl)ethyl)-N-methyl-2-(2-oxoindolin-6-yl)acetamide] showed a pEC50 of at least 7.30.

With `CN(C(=O)Cc1ccc2c(c1)NC(=O)C2)[C@H](CN1CC[C@H](O)C1)c1cccc(-c2nnn(C)n2)c1` [Example 44, N-((S)-2-((S)-3-hydroxypyrrolidin-1-yl)-1-(3-(2-methyl-2H-tetrazol-5-yl)phenyl)ethyl)-N-methyl-2-(2-oxoindolin-6-yl)acetamide], the pEC50 is 7.00 to 7.29.

`CN(C(=O)Cc1ccc2c(c1)NC(=O)CS2)C(CN1CC[C@H](O)C1)C1CCOCC1` (stereo partly drawn) [Example 130, N-(2-((S)-3-hydroxypyrrolidin-1-yl)-1-(tetrahydro-2H-pyran-4-yl)ethyl)-N-methyl-2(3-oxo-3,4-dihydro-2H-benzo[b][1,4]thiazin-6-yl)acetamide] gave a pEC50 of at least 7.30.

For `CN(C(=O)Cc1ccc2c(c1)NC(=O)CS2(=O)=O)[C@H](CN1CC[C@H](O)C1)c1cccc(OCC(F)(F)F)c1` [Example 144, 2-(1,1-dioxido-3-oxo-3,4-dihydro-2H-benzo [b][1,4]thiazin-6-yl)-N-((S)-2-((S)-3-hydroxypyrrolidin-1-yl)-1-(3-(2,2,2-trifluoroethoxy)phenyl)ethyl)-N-methylacetamide], the pEC50 was at least 7.30.

In turn, `CN(C(=O)Cc1ccc2c(c1)NC(=O)C2)[C@H](CN1CC[C@H](O)C1)c1cccc(C(=O)O)c1` [Example 23, 3-((S)-2-((S)-3-hydroxypyrrolidin-1-yl)-1-(N-methyl-2-(2-oxoindolin-6-yl)acetamido)ethyl) benzoic acid] showed a pEC50 of at least 7.30.

Compound `CN(C(=O)Cc1ccc2c(c1)NC(=O)CS2)[C@H](CN1CC[C@H](O)C1)c1cccc(OCC(=O)O)c1` [Example 172, 2-(3-((S)-2-((S)-3-hydroxypyrrolidin-1-yl)-1-(N-methyl-2-(3-oxo-3,4-dihydro-2H-benzo[b][1,4]thiazin-6-yl)acetamido)ethyl)phenoxy)acetic acid] showed a pEC50 of at least 7.30.

With `Cc1cccc([C@@H](CN2CC[C@H](O)C2)N(C)C(=O)Cc2ccc3c(c2)NC(=O)CS3(=O)=O)c1` [Example 145, 2-(1,1-dioxido-3-oxo-3,4-dihydro-2H-benzo [b][1,4]thiazin-6-yl)-N-((S)-2-((S)-3-hydroxypyrrolidin-1-yl)-1-(m-tolyl)ethyl)-N-methylacetamide], the negative-log EC50 (pEC50) was at least 7.30.

Take `CN(C(=O)Cc1ccc2oc(=O)[nH]c2c1)C(CN1CC[C@H](O)C1)c1cccc(OCC(=O)O)c1` (stereo partly drawn) [Example 94, (S)-2-(3-(2-(3-hydroxypyrrolidin-1-yl)-1-(N-methyl-2-(2-oxo-2,3-dihydrobenzo[d]oxazol-5-yl)acetamido)ethyl)phenoxy)acetic acid triflouro acetate]: the pEC50 is at least 7.30.

The compound `Cc1nc(-c2cccc([C@@H](CN3CC[C@H](O)C3)N(C)C(=O)Cc3ccc4sc(=O)[nH]c4c3)c2)no1` [Example 183, N-((S)-2-((S)-3-hydroxypyrrolidin-1-yl)-1-(3-(5-methyl-1,2,4-oxadiazol-3-yl)phenyl)ethyl)-N-methyl-2-(2-oxo-2,3-dihydrobenzo[d]thiazol-5-yl)acetamide] gave a pEC50 of at least 7.30.
